ChEMBL document CHEMBL3507680, “University of Dundee, Gates Library screen for HepG2 cell viability”

Test: Human HepG2 cell viability assay in 384 well format
Type: toxicity, cell-based
Set-up: dose 125 nL, time 70.5 hour; cytotoxicity at 70.5 h: concentration not given beside the values
Settings: HepG2 cells, read-out: Inhibition

SMILES | cytotoxicity at 70.5 h [%]
CN(Cc1ccccc1O)CC1CCCN(CCc2ccc(Cl)cc2)C1 (stereo unspecified) | -2.45
Cc1cc(=O)[nH]c(=O)n1Cc1ccccc1 | -7.18
Cc1nnc(SCCNc2cc(C3CC3)ncn2)s1 | -5.85
CNS(=O)(=O)CCN1CC(c2ccccc2)(c2ccccc2)CCC1=O | 5.38
CC(CN1CCC(CCO)CC1)n1cnc2ccccc21 (stereo unspecified) | -11.4
COc1ccc(-n2cccn2)c(CN2CCC(O)(CO)CC2)c1 | -11.1
CCCc1nnc(NCCc2noc(C3CCCC3)n2)o1 | 9.03
NC(=O)c1nc(CN2CCOC(C(F)(F)F)C2)no1 (stereo unspecified) | 11.5
COc1ccc(-n2nc(C)c(C(C)=O)c2C)cc1CO | 0.889
CC(NC(=O)CCCn1cnc2ccccc2c1=O)c1ncn[nH]1 (stereo unspecified) | -15.2
CCn1ncc2c1NC(=O)CC2c1cnc(NCc2ccccc2)nc1 (stereo unspecified) | 14.7
Cc1cc(CN(C)C(=O)c2cccc(CCC(C)(C)O)c2)no1 | -7.67
CCNc1ncc(C(=O)N(C)CCc2nc3cc(Cl)ccc3[nH]2)cn1 | -16.7
Cc1ccc(Oc2ncccc2CNC2CCSCC2)cn1 | -8.64
CCC1CN(C(=O)c2ccccc2N2CCOCC2)CCN1C(C)C (stereo unspecified) | -1.59
O=S1(=O)COCCN1Cc1ccc(Cl)c(Cl)c1 | -6.71
O=C1NCCCc2[nH]c(Cc3ccc(F)cc3)nc21 | -6
Cc1ccc(OCCN(C)Cc2nccn2C)c(C)c1 | -9.5
OCc1csc(N2C[C@@H](CN3CCCCCC3)[C@@H](CO)C2)n1 | -7.86
CC(=O)N[C@@H]1CN(Cc2ccco2)C[C@H]1c1ccc(C)o1 | -6.07
Cc1nc[nH]c1CN1C[C@@H]2CC[C@H](C1)N(C(=O)CCn1cncn1)C2 | -15
c1ccc(Cc2noc(-c3ccc(NCC4COCCO4)nc3)n2)cc1 (stereo unspecified) | -5.85
CCN1CCCC1Cn1ccc2ccc(C(=O)OC)cc2c1=O (stereo unspecified) | -8.61

SMILES | cytotoxicity at 70.5 h [%]
CN(C)S(=O)(=O)N1C[C@@H]2CC[C@H](C1)N(Cc1ccc3c(c1)OCCO3)C2 | -3.43
CCC[C@H]1CN(c2cncc(C(=O)N(C)C)n2)C[C@@H]1N(C)C | 19.4
COc1cccc(C(=O)C2CCCN(c3nccc(N)n3)C2)c1 (stereo unspecified) | -3.78
O=C1CCC2(CCN(Cc3ccoc3)CC2)N1OCc1ccccc1F | -7.61
OCCCN1CCOC(c2ccc(F)cc2)C1 (stereo unspecified) | -6.31
Cn1c(-c2ccc(F)cc2)cn2cc(C(=O)N3CCC(N)C3)nc2c1=O (stereo unspecified) | -9.46
COc1ncc(CN2CCOC(Cc3cccc4ccccc34)C2)cn1 (stereo unspecified) | 20
CC(=O)N1CCN(Cc2ccc(C(F)(F)F)cc2F)CC(O)C1 (stereo unspecified) | -10.5
CCOc1ccc(-c2c(C#N)c(N)nc3c2COCC3)cn1 | -15
COc1ccc(NC2(C(=O)N3CCn4cncc4C3)CCCC2)cc1 | -11.8
O=C(c1cn[nH]c1)N1CCC2(CCCN(Cc3ccc(F)c(F)c3)C2)C1 (stereo unspecified) | -8.34
COC(=O)CN1CCN(c2nc3c(s2)c(C)nn3C)C(C)C1=O (stereo unspecified) | 3.44
CC(c1cccc(-c2ccc(C(=O)O)cc2Cl)c1)N(C)C (stereo unspecified) | -1.21
O=C(O)CNc1cc(-c2nccnc2N2CCCC2)c2cc[nH]c2n1 | 0.303
Cc1ccnn1CCN1CCCC2(CCC(=O)N(C3CCCC3)C2)C1 (stereo unspecified) | -21
Cc1cccc(OC2CCN(c3nc(N)nc4[nH]cnc34)CC2)c1 | -1.39
CCc1nccn1CC(=O)N1C[C@H]2CC[C@@H]1CN(S(=O)(=O)N(C)C)C2 | 1.78
Cc1cccc(C(C(=O)NCCCc2ccncc2)N(C)C)c1 (stereo unspecified) | -4.41
CCC(C)N(Cc1cccnc1)C(=O)c1ccc(OC)cc1O (stereo unspecified) | -9.19
Cc1cccnc1N1CCC(c2nccn2Cc2cscn2)CC1 | -0.624
Cc1nc2c(c(=O)n1C)CN(C(=O)C1CCCN(C(=O)N(C)C)C1)C2 (stereo unspecified) | -0.169
COCC(C)N(Cc1ccccc1OC)C(=O)c1cc(C)[nH]c(=O)c1 (stereo unspecified) | -5.15
OC[C@H]1CN(Cc2c(Cl)cncc2Cl)C[C@H]1CN1CCOCC1 | -10.9

SMILES | cytotoxicity at 70.5 h [%]
CN(C)C(=O)N1CCCn2nc(CNC(=O)CCc3cccs3)cc2C1 | 0.772
CC(=O)C(C)CC(=O)N(Cc1cccc(C)c1)C(C)C (stereo unspecified) | -1.29
Cc1nc(C)n(CCNC2CCN(c3ncnc4c(C)csc34)CC2)n1 | -5.4
CN1CCCC2(CCN(c3cc(C(F)(F)F)nc(N(C)C)n3)C2)C1=O (stereo unspecified) | 10.3
O=C1O[C@@H]2CN(Cc3cc4ccccc4o3)C[C@@H]2N1Cc1ccccn1 | -4.9
Cc1cc(NC(=O)c2ccc(N3CCOCC3)c(C)c2)[nH]n1 | 8.26
Cc1c(C(C)NCc2cnn(C)c2)cnn1-c1ccccc1 (stereo unspecified) | 2.44
COc1ccccc1Oc1ncccc1CNC(=O)C(O)C(F)(F)F (stereo unspecified) | -5.77
CCS(=O)(=O)N1CCC2(CCCN(Cc3ccc(F)c(F)c3)C2=O)C1 (stereo unspecified) | 1.7
Cc1nc(C(C)C)ncc1C(=O)N1CCC(c2ccccc2C(=O)O)C1 (stereo unspecified) | -3.24
Nc1cc(CC2COc3ccccc3C2)ccn1 (stereo unspecified) | 11.8
CC(C)c1nccc(CN(C)Cc2cnn(-c3ccccc3)c2)n1 | 26.7
CSc1nccc(N2CCC(=O)N(CC3CC3)C(C(C)C)C2)n1 (stereo unspecified) | 54.1
Nc1nccc(N2CCC(c3cc(Cc4ccccc4)n[nH]3)CC2)n1 | 31.5
COc1ccc(C2CC(=O)NCc3nc(N(C)C)sc32)c(O)c1 (stereo unspecified) | 2.48
Cc1noc(C)c1CCCNC(=O)C1CCN(C(=O)C2CC2)CC1 | 24.8
CCNc1ccnc(NC2CCN(S(C)(=O)=O)CC2)n1 | -14.6
Cc1nccnc1N1C[C@H](NC(=O)CNS(C)(=O)=O)[C@@H](C2CC2)C1 | -3.36
Cc1nnc(CN2CCOC(c3ccc(Cl)c(Cl)c3)C2)o1 (stereo unspecified) | -3.49
CCC(Nc1ncnc2sc(C(=O)O)c(C)c12)c1ccnn1C (stereo unspecified) | -12.8
Cc1ccc(-c2noc(C(O)CC(C)C)n2)nn1 (stereo unspecified) | -3.31
Cc1ncsc1C(=O)NCc1cc2n(n1)CCN(C(=O)N(C)C)C2 | -11.4
CC(C)Cc1ncc2c(n1)CN(c1nc(N(C)C)nc3c1CCCC3)C2 | -0.189

SMILES | cytotoxicity at 70.5 h [%]
CCC(CO)N(Cc1ccco1)C(=O)c1ccc(F)cc1Cl (stereo unspecified) | -2.27
CCc1ncc2c(n1)CN(c1cc(NC3CC3)nc(N)n1)C2 | -8.23
C[C@@H]1CN(S(=O)(=O)N2CCOCC2)C[C@@]1(O)C1CC1 | -2.98
CCn1nc(C)c(NC(=O)CN2CCC(c3ccccc3Cl)C2)c1C (stereo unspecified) | 21.2
COc1ccccc1OC1CCN(C(=O)C2CCCN(C)C2)CC1 (stereo unspecified) | -8.14
CCC/C=C/c1ccc(CN2CCCC2)cn1 | 48.4
COCCCN1CC2(CCC1=O)CCN(Cc1cc(C(C)C)no1)CC2 | 29.5
Cc1nccn1CCC1CCCCN1C(=O)c1ccc2nonc2c1 (stereo unspecified) | -1.05
Cc1ccc(N2CC[C@@H](NC(=O)c3cnccn3)[C@H](O)C2)nn1 | -7.78
Cc1nccn1Cc1nnc(C2CCCN(c3ncccc3F)C2)n1C (stereo unspecified) | -17.5
Cc1cccnc1CN1CCN(CC(=O)N(C)C)[C@@H]2CS(=O)(=O)C[C@@H]21 | -5.23
Cc1ccc(NC(=O)[C@H]2C[C@H](C(=O)O)CN(CC(C)C)C2)cn1 | -11.2
CCCn1nccc1C(=O)N1CCCC(C(=O)CCc2ccccc2)C1 (stereo unspecified) | -2.61
CC(C)c1cc(C2CCCN2C(=O)c2cn3ccsc3n2)no1 (stereo unspecified) | -5.17
CN(C)Cc1ccc(C2CCCCN2C(=O)c2ncccc2O)cc1 (stereo unspecified) | -3.45
CC1=CC[C@@H]2CN(C(=O)c3ccc(-c4nc[nH]n4)cc3)C[C@@H]2C1 | 11
CN1CCC(Cc2nc(-c3cnccn3)n(C3CCS(=O)(=O)C3)n2)CC1 (stereo unspecified) | 0.375
Cc1cc(C)c(C(=O)N(CCO)Cc2ccccc2F)c(=O)[nH]1 | -8.86
Cc1cc(NCCN2CCNC2=O)nc2cc3c(cc12)CCC3 | -4.19
CCOc1ccccc1C(C(=O)O)N(C)Cc1cc(C)[nH]n1 (stereo unspecified) | -5.35
O=C(O)C(c1ccc2[nH]ccc2c1)N1CCN(c2cnccn2)CC1 (stereo unspecified) | -3.87
Cc1cc(N2CCCN(CCc3ccccc3)CC2)ccn1 | -5.44
O=C1COc2cc(OC[C@@H]3CCCN4CCCC[C@H]34)ccc21 | 14.3

SMILES | cytotoxicity at 70.5 h [%]
N#Cc1cc2c(=O)n(CC(O)c3cccc(O)c3)ccc2[nH]c1=O (stereo unspecified) | -6.53
Cc1nc2c(c(N(C)CC3Cc4ccccc4CN3C)n1)CCNCC2 (stereo unspecified) | 11.4
Cn1cc(CN2CCCC(Cn3cc(CCCO)nn3)C2)cn1 (stereo unspecified) | -7.9
CS(=O)(=O)NCCC1CCCN(Cc2ccccc2F)C1 (stereo unspecified) | -7.9
CCN(CC)CCNCc1cc(O)c2cc(C)ccc2n1 | -11.3
N#Cc1ccc(N2CCCC(CO)(CCOc3ccccc3)C2)nc1 (stereo unspecified) | -6.22
CCn1cnc(NC(=O)NCC2CCS(=O)(=O)CC2)n1 | -19.4
O=C(c1cccc(-c2ncc[nH]2)c1)N1CCC(N2CCCC(O)C2)CC1 (stereo unspecified) | 4.83
O=C(O)c1ccc(N2CCC(Oc3ccc(Cl)cc3)CC2)nc1 | -12.3
CS(=O)(=O)Cc1nc(CCc2ccccc2)nn1-c1ccccn1 | -10.4
O=C(O)c1ccnc(-c2ccnc(NCCc3nc4c(s3)CCC4)n2)c1 | -6.73
CCOc1ccccc1-n1c(C2CC2)n[nH]c1=O | -16.7
Cc1cc2ncn(C[C@]3(O)CCCN4CCCC[C@@H]43)c2cc1C | -15
Cc1ccc(OCC2CCCN(Cc3ccc(CO)o3)C2)cc1 (stereo unspecified) | -3.39
C=C(C)COc1cccc(C(=O)N(C)Cc2cc(CC)no2)c1 | -3.37
CC1=CCN(S(=O)(=O)c2cccc(C(=O)N3CCOCC3)c2)CC1 | -15.8
O=C(NCCc1ccccc1)c1cccc(S(=O)(=O)NC2CCOC2)c1 (stereo unspecified) | 19.4
Cc1ncnc(N2CCN(C(=O)C3CC4(CCNCC4)CN3)CC2)c1C (stereo unspecified) | 13.5
CCS(=O)(=O)c1ncc(CN2CCSCC2)n1CCc1ccccc1 | -11.3
